For 19 compounds, Ki and inhibition results are on record in patent US6833456B2, “Indolyl-urea derivatives of thienopyridines useful as antiangiogenic agents, and methods for their use” (Agouron Pharmaceuticals, Inc., priority 2002, dated 2004).

Molecules are shown by their SMILES.

The target of this assay is T1, unphosphorylated VEGF-R2Δ50 (FLVK) (Homo sapiens, UniProt P35968, DEL940-989/E990V).
T1 construct: VEGF-R2Δ50 contains residues 806-939 and 990-1171; made in house; host or cells: baculovirus/insect cell system
T1 sequence (P35968 with tags, fused parts or gaps DEL940-989/E990V limits assumed): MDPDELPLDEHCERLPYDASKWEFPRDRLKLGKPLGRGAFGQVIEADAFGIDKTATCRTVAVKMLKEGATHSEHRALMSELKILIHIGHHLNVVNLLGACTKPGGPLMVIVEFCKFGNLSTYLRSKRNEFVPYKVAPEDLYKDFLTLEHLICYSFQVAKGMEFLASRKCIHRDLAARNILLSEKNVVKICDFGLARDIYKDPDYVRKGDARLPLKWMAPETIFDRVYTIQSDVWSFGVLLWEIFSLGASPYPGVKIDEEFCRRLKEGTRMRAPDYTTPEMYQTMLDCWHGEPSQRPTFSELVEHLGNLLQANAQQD
The experiment in a line: VEGF-R2 coupled spectrophotometric assay, unphosphorylated construct (FLVK). The format is biochemical. Particulars: for inhibition at 0.05 µM: percent inhibition at 50 nM. From the text:
This construct determines the ability of a test compound to inhibit tyrosine kinase activity. A construct (VEGF-R2Δ50) of the cytosolic domain of human vascular endothelial growth factor receptor 2 (VEGF-R2) lacking the 50 central residues of the 68 residues of the kinase insert domain was expressed in a baculovirus/insect cell system. Of the 1356 residues of full-length VEGF-R2, VEGF-R2Δ50 contains residues 806-939 and 990-1171, and also one point mutation (E990V) within the kinase insert domain relative to wild-type VEGF-R2. Autophosphorylation of the purified construct was performed by incubation of the enzyme at a concentration of 4 μM in the presence of 3 mM ATP and 40 mM MgCl2 in 100 mM HEPES, pH 7.5, containing 5% glycerol and 5 mM DTT, at 4° C. for 2 h. […] See Parast et al., Biochemistry, 37, 16788-16801 (1998).
The production of ADP from ATP that accompanies phosphoryl transfer was coupled to oxidation of NADH using phosphoenolpyruvate (PEP) and a system having pyruvate kinase (PK) and lactic dehydrogenase (LDH). The oxidation of NADH was monitored by following the decrease of absorbance at 340 nm ([…]=6.22 cm^−1 mM^−1) using a Beckman DU 650 spectrophotometer. Assay conditions for phosphorylated VEGF-R2Δ50 (indicated as FLVK-P in the tables below) were the following: 1 mM PEP; 250 μM NADH; 50 units of LDH/mL; 20 units of PK/mL; 5 mM DTT; […]; 1 mM ATP; and 25 mM MgCl2 in 200 mM HEPES, pH 7.5. Assay conditions for unphosphorylated VEGF-R2Δ50 (indicated as FLVK in the tables) were the following: 1 mM PEP; 250 μM NADH; 50 units of LDH/mL; 20 units of PK/mL; 5 mM DTT; […]; 3 mM ATP; and 60 mM MgCl2 and 2 mM MnCl2 in 200 mM HEPES, pH 7.5. Assays were initiated with 5 to 40 nM of enzyme. Ki values were determined by measuring enzyme activity in the presence of varying concentrations of test compounds. The percent inhibition at 50 nm (% inhibition@ 50 nm) was determined by linear least-squares regression analysis of absorbance as a function of time. The binding inhibitions were fitted to equation as described by Morrison. The data were analyzed using Enzyme Kinetic and Kaleidagraph software.

For orientation: Ki means a dissociation constant, usually derived from enzyme kinetics or from competition with a known ligand. As usually defined, the inhibition is the percentage by which the read-out fell short of the control. A low value points to a response near the control. Turning to `CNC(=O)n1c(C)cc2cc(Oc3ccnc4cc(C(=O)N5C[C@H](OC)[C@H](OC)C5)sc34)ccc21` [Example 4r, 5-[2-(3,4-cis-Dimethoxy-pyrrolidine-1-carbonyl)-thieno[3,2-b]pyridin-7-yloxy]-2-methyl-indole-1-carboxylic acid methylamide], the Ki is 0.701 nM and 0.05 µM produced 96% inhibition.

Compound `CNC(=O)n1c(C)cc2cc(Oc3ccnc4cc(C(=O)N5C[C@@H](O)[C@@H](O)C5)sc34)ccc21` [Example 4s, 5-[2-(3,4-cis-Dihydroxy-pyrrolidine-1-carbonyl)-thieno[3,2-b]pyridin-7-yloxy]-2-methyl-indole-1-carboxylic acid methylamide] displayed a Ki of 0.085 nM and an inhibition at 0.05 µM of 98%.

For the compound `CO[C@H]1CN(C(=O)c2cc3nccc(Oc4ccc5c(c4)cc(C)n5C(=O)NC4CC4)c3s2)C[C@H]1OC` [Example 4t, 5-[2-(3,4-cis-Dimethoxy-pyrrolidine-1-carbonyl)-thieno[3,2-b]pyridin-7-yloxy]-2-methyl-indole-1-carboxylic acid cyclopropylamide], the Ki was 0.594 nM and 0.05 µM produced 98% inhibition.

For `Cc1cc2cc(Oc3ccnc4cc(C(=O)N5C[C@@H](O)[C@@H](O)C5)sc34)ccc2n1C(=O)NC1CC1` [Example 4u, 5-[2-(3,4-cis-Dihydroxy-pyrrolidine-1-carbonyl)-thieno[3,2-b]pyridin-7-yloxy]-2-methyl-indole-1-carboxylic acid cyclopropylamide], the Ki turned out to be 0.2 nM and at 0.05 µM the inhibition was 98%.

`C#CCNC(=O)n1c(C)cc2cc(Oc3ccnc4cc(C(=O)N5C[C@H](OC)[C@H](OC)C5)sc34)ccc21` [Example 4v, 5-[2-(3,4-cis-Dimethoxy-pyrrolidine-1-carbonyl)-thieno[3,2-b]pyridin-7-yloxy]-2-methyl-indole-1-carboxylic acid prop-2-ynylamide] had a Ki of 0.416 nM and an inhibition at 0.05 µM of 99%.

Turning to `C#CCNC(=O)n1c(C)cc2cc(Oc3ccnc4cc(C(=O)N5C[C@@H](O)[C@@H](O)C5)sc34)ccc21` [Example 4w, 5-[2-(3,4-cis-Dihydroxy-pyrrolidine-1-carbonyl)-thieno[3,2-b]pyridin-7-yloxy]-2-methyl-indole-1-carboxylic acid prop-2-ynylamide], the Ki was 0.172 nM and the inhibition at 0.05 µM was determined as 99%.

`CNC(=O)c1c(C)[nH]c2ccc(Oc3ccnc4cc(C(=O)N5CCC[C@@H]5COC)sc34)cc12` [Example 4x, 5-[2-(2R-Methoxymethyl-pyrrolidine-1-carbonyl)-thieno[3,2-b]pyridin-7-yloxy]-2-methyl-1H-indole-3-carboxylic acid methylamide] yielded a Ki of 100 nM and an inhibition at 0.05 µM of 1%.

Regarding `Cc1cc2c(F)c(Oc3ccnc4cc(C(=O)N5CC[C@H](O)C5)sc34)ccc2n1C(=O)NC1CC1` [Example 5j, 4-Fluoro-5-[2-(3S-hydroxy-pyrrolidine-1-carbonyl)-thieno[3,2-b]pyridin-7-yloxy]-2-methyl-indole-1-carboxylic acid cyclopropylamide], affinity was put at a Ki of 0.388 nM and the inhibition at 0.05 µM is 100%.

For `CNC(=O)n1c(C)cc2c(F)c(Oc3ccnc4cc(C(=O)N5CC[C@@H](OC)C5)sc34)ccc21` [Example 5l, 4-Fluoro-5-[2-(3R-methoxy-pyrrolidine-1-carbonyl)-thieno[3,2-b]pyridin-7-yloxy]-2-methyl-indole-1-carboxylic acid methylamide], the Ki was determined as 0.189 nM and at 0.05 µM the inhibition was 99%.

Consider `CNC(=O)n1c(C)cc2c(F)c(Oc3ccnc4cc(C(=O)N5CC[C@@H](O)C5)sc34)ccc21` [Example 5m, 4-Fluoro-5-[2-(3R-hydroxy-pyrrolidine-1-carbonyl)-thieno[3,2-b]pyridin-7-yloxy]-2-methyl-indole-1-carboxylic acid methylamide], for which the affinity, expressed as Ki, was 0.586 nM and the inhibition at 0.05 µM stood at 98%.

The compound `CNC(=O)n1c(C)c(Cl)c2c(F)c(Oc3ccnc4cc(C(=O)N5CC[C@H](O)C5)sc34)ccc21` [Example 6e, 3-Chloro-4-fluoro-5-[2-(3S-hydroxy-pyrrolidine-1-carbonyl)-thieno[3,2-b]pyridin-7-yloxy]-2-methyl-indole-1-carboxylic acid methylamide] displayed a Ki of 0.279 nM and an inhibition at 0.05 µM of 99%.

On to `Cc1c(Cl)c2c(F)c(Oc3ccnc4cc(C(=O)N5CC[C@H](O)C5)sc34)ccc2n1C(=O)NC1CC1` [Example 6f, 3-Chloro-4-fluoro-5-[2-(3S-hydroxy-pyrrolidine-1-carbonyl)-thieno[3,2-b]pyridin-7-yloxy]-2-methyl-indole-1-carboxylic acid cyclopropyl-amide], for which affinity was put at a Ki of 0.154 nM and testing at 0.05 µM gave an inhibition of 98%.

For `CNC(=O)n1c(C)c(Cl)c2c(F)c(Oc3ccnc4cc(C(=O)N5CC[C@@H](OC)C5)sc34)ccc21` [Example 6g, 3-Chloro-4-fluoro-5-[2-(3R-methoxy-pyrrolidine-1-carbonyl)-thieno[3,2-b]pyridin-7-yloxy]-2-methyl-indole-1-carboxylic acid methylamide], the Ki was determined as 1.23 nM and the inhibition at 0.05 µM was determined as 97%.

`C#CCNC(=O)n1c(C)c(Cl)c2c(F)c(Oc3ccnc4cc(C(=O)N5CC[C@@H](OC)C5)sc34)ccc21` [Example 6h, 3-Chloro-4-fluoro-5-[2-((R)-3-methoxy-pyrrolidine-1-carbonyl)-thieno[3,2-b]pyridin-7-yloxy]-2-methyl-indole-1-carboxylic acid prop-2-ynylamide] came in with a Ki of 0.142 nM and an inhibition at 0.05 µM of 98%.

Regarding `CNC(=O)n1c(C)cc2cc(Nc3ccnc4cc(C(=O)N5CC(F)[C@H](OC)C5)sc34)ccc21` (stereo partly drawn) [Example 7a, 5-[(2-{[(4R)-3-Fluoro-4-methoxypyrrolidin-1-yl]carbonyl}thieno[3,2-b]pyridin-7-yl)amino]-N,2-dimethyl-1H-indole-1-carboxamide], the affinity, expressed as Ki, was 0.796 nM and at 0.05 µM the inhibition was 93%.

As for `CNC(=O)n1c(C)cc2cc(Nc3ccnc4cc(C(=O)N5CCC5)sc34)ccc21` [Example 7c, 5-[2-(Azetidine-1-carbonyl)-thieno[3,2-b]pyridin-7-ylamino]-2-methyl-indole-1-carboxylic acid methylamide], the Ki was 1.91 nM and at 0.05 µM the inhibition was 97%.

`CNC(=O)n1c(C)cc2cc(Oc3ccnc4cc(C(=O)N5C[C@H](OC)[C@@H](O)C5)sc34)ccc21` [Example 8c]: the Ki was 0.123 nM and testing at 0.05 µM gave an inhibition of 98%.

`CNC(=O)n1c(C)cc2cc(Oc3ccnc4cc(C(=O)N5C[C@H](O)[C@@H](O)C5)sc34)ccc21` [Example 8d]: the affinity corresponds to a Ki of 0.109 nM and the inhibition at 0.05 µM was 99%.

`CCCNC(=O)n1c(C)cc2cc(Oc3ccnc4cc(C(=O)N5C[C@H](OC)[C@@H](OC)C5)sc34)ccc21` [Example 8e, 5-[(2-{[(3S,4S)-3,4-dimethoxypyrrolidin-1-yl]carbonyl}thieno[3,2-b]pyridin-7-yl)oxy]-2-methyl-N-propyl-1H-indole-1-carboxamide]: the Ki amounted to 0.115 nM and at 0.05 µM the inhibition was 98%.
